Measurements from patent publication US8293253B2, “Compositions for controlled delivery of pharmaceutically active compounds” (IDEXX Laboratories, Inc., priority 2004, dated 2012).

Assay: Dissolution of AMP alone in organic solvent
Assay type: physicochemical
Description: (§1) […] […] 1 eq. of a phosphorylated nucleotide such as adefovir can be substituted for each eq. of AMP.
as §1

Dissolution of AMP alone in N-methyl pyrrolidone (0.5 g in 10 mL of N-methyl pyrrolidone, absence of tyrosine butyrate): will not dissolve | Dissolution of AMP alone in glycerol formal (1 g in 10 mL of glycerol formal, absence of isoleucine butyrate): will not dissolve
Structure (SMILES): Nc1ncnc2c1ncn2[C@@H]1O[C@H](COP(=O)(O)O)[C@@H](O)[C@H]1O [AMP, Adenosine monophosphate]
